In patent publication US11510980B2, “Brartemicin analogues” (VICTORIA LINK LTD, priority 2017, dated 2022):

How the values were obtained:
hMincle-Ig = target: T1, hMincle-Ig (Homo sapiens, UniProt Q9ULY5); assay: In vitro Mincle binding assay (ELISA) with hMincle-Ig fusion protein; conditions: plate-coated ligand 0.1 nmol/well
T1 construct: using soluble Mincle-Ig fusion-proteins; made in house
T1 sequence (Q9ULY5 41-219 limits assumed): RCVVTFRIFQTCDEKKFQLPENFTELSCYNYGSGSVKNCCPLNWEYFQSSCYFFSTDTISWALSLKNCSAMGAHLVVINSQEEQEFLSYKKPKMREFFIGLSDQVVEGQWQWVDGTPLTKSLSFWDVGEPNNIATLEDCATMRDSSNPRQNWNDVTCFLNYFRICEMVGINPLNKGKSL
Method: (§1) Preparation of ligand-coated plates: Brartemicin analogues 9a-9i, TDM (Carbosynth, Sigma Aldrich), and TDB^14 were dissolved in CHCl3:MeOH (2:1, 1 mM), diluted in isopropanol ([…]) and added to 96-well plates (20 μL/well). The solvents were evaporated and the coated plates were used immediately.
(§2) In vitro Mincle binding assay: The preparation of mMincle- and hMincle-Ig fusion proteins have been previously described. Plate-coated glycolipids 9a-i, TDB, and TDM were incubated with hMincle-Ig, mMincle-Ig, or hIgG1-Fc (Ig) [3 μg/mL in binding buffer (20 mM Tris-HCl, 150 mM NaCl, 1 mM CaCl2), 2 mM MgCl2, pH 7.0)]. Detection of bound protein was achieved via incubation with anti-hIgG-HRP followed by the addition of a colorimetric substrate and measurement of OD at 450 nm. Background was accounted for by subtracting the hIgG1-Fc OD450 values from fusion protein OD450 values
(§3) The synthesised brartemicin analogues prepared in Example 1 were first tested for their ability to bind to both human and murine Mincle in an enzyme-linked immunosorbent assay (ELISA) using soluble Mincle-Ig fusion-proteins (FIG. 1a).

wild-type GM-CSF BMDMs = assay: Cytokine/chemokine production by wild-type GM-CSF BMDMs on ligand-coated plates; assay type: cell-based, C57BL/6 mice; conditions: for MIP-2 production / IL-1β production / IL-6 production / TNF production: wild-type BMDMs, coated plates 0.1 or 1 nmol/well, 24 hours, ELISA
Method: as §1
Murine bone-marrow derived macrophages: For the preparation of murine bone-marrow derived macrophages, bone marrow cells were collected from the tibias and femurs of C57BL/6 mice and cultured (250,000 cells/mL) in complete RPMI media [RPMI-1640 (Gibco) with 10% heat inactivated fetal bovine serum (Gibco), 100 unit/mL penicillin-streptomycin (Gibco) and 2 mM Glutamax (Gibco)] supplemented with 50 ng/mL GM-CSF (clone X63/GM-CSF murine cells). Cells were incubated at 37° C. (5% CO2) for 8 days (cells fed by replacing half the media on days 3 and 6). On day 8, all media was removed and the cells were washed with Dulbecco's Phosphate-Buffered Saline (DPBS, Gibco) to remove any loosely-adherent cells. The BMDMs were harvested with StemPro Acutase (1 mL/well, 15 minutes at room temperature, Gibco) and seeded onto a pre-coated 96-well plate. The supernatant was collected and analysed for cytokine/chemokine production after 24 hours.
Cytokine analysis: IL-1β, IFN-γ, IL-6, TNF-α (BD Biosciences), IL-17, and MIP-2 (R&D) levels were determined via sandwich ELISA according to the manufacturer's instructions.
First, the ability of the compounds to activate GM-CSF BMDMs was determined by monitoring the secretion of the inflammatory cytokines TNF, IL-6, and IL-1β and the chemokine, MIP-2, in a ligand-coated plate assay (FIG. 2).
To gain insight into the capacity of the 2G-series of brartemicin analogues to induce an inflammatory immune response, the analogues were then screened for their ability to activate WT and Mincle^−/− BMDMs, with cellular activation being determined by the measurement of IL-1B using ELISA (FIG. 6).

mMincle-Ig = target: T2, mMincle-Ig (Mus musculus, UniProt Q9R0Q8); assay: In vitro Mincle binding assay (ELISA) with mMincle-Ig fusion protein; parameters: species or system murine; conditions: plate-coated ligand 0.1 nmol/well
T2 construct: using soluble Mincle-Ig fusion-proteins; made in house
T2 sequence (Q9R0Q8 46-214 limits assumed): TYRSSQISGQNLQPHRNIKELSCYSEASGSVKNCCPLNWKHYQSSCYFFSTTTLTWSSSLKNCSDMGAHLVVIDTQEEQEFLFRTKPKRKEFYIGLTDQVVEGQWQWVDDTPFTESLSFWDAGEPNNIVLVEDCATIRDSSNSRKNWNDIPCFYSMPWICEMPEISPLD
Method: as §1, §2, §3

mMincle+FcRγ = target: T3, mMincle+FcRγ (Mus musculus, UniProt Q9R0Q8); assay: 2B4-NFAT-GFP reporter cells expressing mMincle+FcRγ; assay type: cell-based, murine; conditions: ligand-coated plates 0.01, 0.1 or 1 nmol/well, 18 hours
T3 construct: expressed in transfected cells; host or cells: 2B4-NFAT-GFP reporter cells
T3 sequence (Q9R0Q8 1-214): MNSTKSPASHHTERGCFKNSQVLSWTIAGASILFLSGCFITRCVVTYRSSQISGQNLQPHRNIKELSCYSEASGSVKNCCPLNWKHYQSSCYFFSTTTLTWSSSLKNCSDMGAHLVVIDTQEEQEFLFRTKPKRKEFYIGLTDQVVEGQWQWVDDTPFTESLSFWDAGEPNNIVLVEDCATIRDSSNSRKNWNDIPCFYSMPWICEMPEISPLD
T3 sequence (P20491 19-86 partner): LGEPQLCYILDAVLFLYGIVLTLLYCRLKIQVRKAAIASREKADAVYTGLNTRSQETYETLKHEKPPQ
Method: as §1
(§4) 2B4-NFAT-GFP reporter cells: 2B4-NFAT-GFP reporter cells expressing mMincle+FcRγ, hMincle+FcRγ, or FcRγ only have been previously described. […] The reporter cells were harvested, stained with propidium iodide, and analysed for NFAT-GFP expression using flow cytometry (FACS Calibur).
(§5) To determine whether the Mincle binding observed in Example 1 correlated with cellular activation, nuclear factor of activated T cells (NFAT)-green fluorescent protein (GFP) reporter cells expressing mMincle or hMincle coupled to FcRγ were stimulated using plates coated with TDM, TDB, brartemicin (9i), or analogues 9a-9h.
(§6) Activation of the reporter cells was measured through the production of GFP, which was monitored by flow cytometry (FIGS. 1b and 3c).
(§7) With the compounds 43a-h in hand, the ability of these analogues to bind and signal through Mincle was assessed (FIG. 5). Accordingly, NFAT-GFP reporter cells expressing mMincle+FcRγ, hMincle+FcRγ, or FcRγ-only were stimulated with the 2G-brartemicin analogues 43a-h, TDB, iPrOH, or the p-OC18H37 substituted analogue, 9f. Reporter cell activation was measured by the production of NFAT-GFP, which was analysed by flow cytometry.

hMincle+FcRγ = target: T4, hMincle+FcRγ (Homo sapiens, UniProt Q9ULY5); assay: 2B4-NFAT-GFP reporter cells expressing hMincle+FcRγ; assay type: cell-based; conditions: ligand-coated plates 0.01, 0.1 or 1 nmol/well, 18 hours
T4 construct: expressed in transfected cells; host or cells: 2B4-NFAT-GFP reporter cells
T4 sequence (Q9ULY5 1-219): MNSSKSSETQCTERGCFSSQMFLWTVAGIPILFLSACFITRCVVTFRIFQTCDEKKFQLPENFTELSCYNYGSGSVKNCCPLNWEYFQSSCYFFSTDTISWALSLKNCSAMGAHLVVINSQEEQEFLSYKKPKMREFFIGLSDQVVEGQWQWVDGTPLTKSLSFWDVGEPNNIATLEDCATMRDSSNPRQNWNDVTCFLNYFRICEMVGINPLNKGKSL
Method: as §1, §4, §5, §6, §7

activation of mMincle NFAT-GFP reporter cells (GFP by flow cytometry) (mMincle+FcRγ) | activation of hMincle NFAT-GFP reporter cells (GFP by flow cytometry) (hMincle+FcRγ) | activation of mMincle NFAT-GFP reporter cells (GFP by flow cytometry) (mMincle+FcRγ; listed as Brartemicin) | Compound | binding to hMincle-Ig (ELISA, OD at 450 nm) (hMincle-Ig) | MIP-2 production (wild-type GM-CSF BMDMs) | binding to mMincle-Ig (ELISA, OD at 450 nm) (mMincle-Ig) | IL-1β production (wild-type GM-CSF BMDMs) | IL-6 production (wild-type GM-CSF BMDMs) | TNF production (wild-type GM-CSF BMDMs) | activation of BMDMs (wild-type GM-CSF BMDMs)
strongly activated | strongly activated |  | CCCCCCCOc1cc(C)c(C(=O)OCC2O[C@H](O[C@H]3OC(COC(=O)c4c(C)cc(OCCCCCCC)cc4O)[C@@H](O)C(O)C3O)C(O)C(O)[C@@H]2O)c(O)c1 (stereo partly drawn) [9h, 6,6′-Di-O-(4-heptyloxy-2-hydroxy-6-methylbenzoyl)-α,α′-D-trehalose] | good binding | significant production | good binding | significant production | significant production | significant production | 
did not significantly activate mMincle | not to activate | not to activate | Cc1cc(O)cc(O)c1C(=O)OC[C@H]1O[C@H](O[C@H]2O[C@H](COC(=O)c3c(C)cc(O)cc3O)[C@@H](O)[C@H](O)[C@H]2O)[C@H](O)[C@@H](O)[C@@H]1O [9i, Brartemicin] | did not bind hMincle- or mMincle-Ig to any great extent | did not induce the production of any of the cytokines measured | did not bind hMincle- or mMincle-Ig to any great extent | did not induce the production of any of the cytokines measured | did not induce the production of any of the cytokines measured | did not induce the production of any of the cytokines measured | not to activate

Compound | activation of mMincle NFAT-GFP reporter cells (GFP by flow cytometry) (mMincle+FcRγ) | activation of hMincle NFAT-GFP reporter cells (GFP by flow cytometry) (hMincle+FcRγ) | activation of mMincle NFAT-GFP reporter cells (GFP by flow cytometry) (mMincle+FcRγ; listed as Brartemicin) | binding to hMincle-Ig (ELISA, OD at 450 nm) (hMincle-Ig) | MIP-2 production (wild-type GM-CSF BMDMs) | binding to mMincle-Ig (ELISA, OD at 450 nm) (mMincle-Ig) | IL-1β production (wild-type GM-CSF BMDMs) | IL-6 production (wild-type GM-CSF BMDMs) | TNF production (wild-type GM-CSF BMDMs) | activation of BMDMs (wild-type GM-CSF BMDMs)
CCCCOc1ccc(C(=O)OCC2O[C@H](O[C@H]3OC(COC(=O)c4ccc(OCCCC)cc4O)[C@@H](O)C(O)C3O)C(O)C(O)[C@@H]2O)c(O)c1 (stereo partly drawn) [9c, 6,6′-Di-O-(2-hydroxy-4-butoxybenzoyl)-α,α′-D-trehalose] | able to activate mMincle and hMincle only at high ligand concentrations | able to activate mMincle and hMincle only at high ligand concentrations |  | did not bind hMincle- or mMincle-Ig to any great extent | induced MIP-2 | did not bind hMincle- or mMincle-Ig to any great extent |  |  |  | 
